Test systems include M14 melanoma; RXF 393 renal; LOX IMVI melanoma; SW-620 colon; NCI-H460 lung; HCT-116 colon; MDA-MB-435; MALME-3M melanoma; OVCAR-8 ovarian; KM12 colon; SK-MEL-28 melanoma; NCI-H226 lung; HT29 colon; HL-60(TB) leukemia; NCI-H23 lung; OVCAR-4 ovarian; SN12C renal; OVCAR-3 ovarian; SF-268 CNS; EKVX NSCLC.
What all share (assay): growth of human tumour cells (NCI), 48 h

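How tested: cells in 96-well plates exposed to compound for 48 hours at five concentrations. TGI is the concentration that stops growth completely.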

For `COc1cc(C2=C(c3cc(OC)c4ccccc4c3OC)C(=O)c3ccccc3C2=O)c(OC)c2ccccc12`, the TGI with M14 melanoma, with RXF 393 renal, with LOX IMVI melanoma, in the assay on SW-620 colon, with NCI-H460 lung and in the assay on HCT-116 colon was above 100 µM in each case. For the same compound, the TGI with MDA-MB-435, in the assay on MALME-3M melanoma, in the assay on OVCAR-8 ovarian, in the assay on KM12 colon, in the assay on SK-MEL-28 melanoma and in the assay on NCI-H226 lung was above 100 µM each time. The TGI with HT29 colon, in the assay on HL-60(TB) leukemia, in the assay with NCI-H23 lung, with OVCAR-4 ovarian, with SN12C renal and in the assay on OVCAR-3 ovarian was above 100 µM each time. Also, the TGI in the assay on SF-268 CNS and with EKVX NSCLC was above 100 µM each time.
For `C[C@]12CC[C@@H]3c4ccc(O)cc4CC[C@H]3[C@@H]1CC[C@@H]2OP(=O)(O)O`, the TGI in the assay with M14 melanoma, in the assay with RXF 393 renal, in the assay on LOX IMVI melanoma, with SW-620 colon, in the assay on NCI-H460 lung and in the assay on HCT-116 colon was above 100 µM in each case. Besides, the TGI in the assay with MDA-MB-435, with MALME-3M melanoma, with OVCAR-8 ovarian, with KM12 colon, in the assay on SK-MEL-28 melanoma and in the assay on NCI-H226 lung was above 100 µM each time. Moreover, the TGI in the assay with HT29 colon, in the assay on HL-60(TB) leukemia, with NCI-H23 lung, in the assay with OVCAR-4 ovarian, in the assay with SN12C renal and with OVCAR-3 ovarian was above 100 µM each time. Besides, the TGI in the assay on SF-268 CNS and in the assay on EKVX NSCLC was above 100 µM throughout.
As to `c1ccc(-c2nnc(-c3ccccn3)c3c2C[C@@H]2C[C@@H]4Cc5c(-c6ccccn6)nnc(-c6ccccn6)c5[C@@H]4[C@H]32)nc1`, the TGI in the assay on M14 melanoma was 43.6 µM; in the assay with RXF 393 renal, above 100 µM; in the assay with LOX IMVI melanoma, above 100 µM; with SW-620 colon, above 100 µM; in the assay with NCI-H460 lung it was 88 µM; with HCT-116 colon it was above 100 µM. Moreover, the TGI is above 100 µM in the assay on MDA-MB-435; above 100 µM in the assay with MALME-3M melanoma; above 100 µM with OVCAR-8 ovarian; above 100 µM with KM12 colon; 75.9 µM with SK-MEL-28 melanoma; above 100 µM in the assay on NCI-H226 lung. The TGI in the assay with HT29 colon is above 100 µM; with HL-60(TB) leukemia it was 58.8 µM; with NCI-H23 lung, above 100 µM; in the assay on OVCAR-4 ovarian, above 100 µM; in the assay with SN12C renal, above 100 µM; with OVCAR-3 ovarian it was above 100 µM. Moreover, the results for the TGI with SF-268 CNS and in the assay with EKVX NSCLC were above 100 µM and 36.8 µM, respectively.
As to `CN1CCc2c3n(c4cc(Br)ccc24)[C@H](O)CCCC31` (some centres not stated), the TGI in the assay on M14 melanoma was 3.24 µM; in the assay with RXF 393 renal, 7.74 µM; in the assay with LOX IMVI melanoma it was 3.29 µM; in the assay on SW-620 colon, 3.47 µM; with NCI-H460 lung, 2.97 µM; with HCT-116 colon it was 3.07 µM. Also, the TGI in the assay with MDA-MB-435 was 3.27 µM; in the assay with MALME-3M melanoma, 4.63 µM; in the assay with OVCAR-8 ovarian, 3.43 µM; in the assay with KM12 colon, 5.32 µM; in the assay with SK-MEL-28 melanoma, 3.19 µM; in the assay on NCI-H226 lung it was above 10 µM. In addition, the TGI in the assay on HT29 colon was 3.28 µM; in the assay with HL-60(TB) leukemia it was 4.15 µM; in the assay with NCI-H23 lung it was above 10 µM; in the assay on OVCAR-4 ovarian it was above 7.44 µM; with SN12C renal, above 10 µM; in the assay on OVCAR-3 ovarian, above 10 µM. In addition, the TGI in the assay on SF-268 CNS and with EKVX NSCLC was above 10 µM throughout.
With `S=c1nc(N2CCCCC2)c2cn[nH]c2[nH]1`, the TGI with M14 melanoma, in the assay on RXF 393 renal, in the assay on LOX IMVI melanoma, in the assay with SW-620 colon, in the assay with NCI-H460 lung and in the assay on HCT-116 colon was above 100 µM throughout. Moreover, the TGI in the assay with MDA-MB-435, in the assay with MALME-3M melanoma, with OVCAR-8 ovarian, with KM12 colon, with SK-MEL-28 melanoma and with NCI-H226 lung was above 100 µM each time. Besides, the TGI in the assay with HT29 colon was above 100 µM; with HL-60(TB) leukemia, 69.9 µM; with NCI-H23 lung, above 100 µM; in the assay with OVCAR-4 ovarian, above 100 µM; in the assay on SN12C renal, above 100 µM; with OVCAR-3 ovarian it was above 100 µM. In addition, the TGI in the assay on SF-268 CNS and in the assay on EKVX NSCLC was above 100 µM in each case.
For the compound `CC(=O)N1C(OC(C)C)CC(C)N1c1ccccc1` (configuration not stated), the TGI with M14 melanoma, in the assay with RXF 393 renal, in the assay on LOX IMVI melanoma, with SW-620 colon, in the assay on NCI-H460 lung and in the assay with HCT-116 colon was above 10 µM in each case. In addition, the TGI in the assay with MDA-MB-435, with MALME-3M melanoma, with OVCAR-8 ovarian, with SK-MEL-28 melanoma, with NCI-H226 lung and with HT29 colon was above 10 µM throughout. Moreover, the TGI in the assay on HL-60(TB) leukemia, in the assay on NCI-H23 lung, with OVCAR-4 ovarian, in the assay on SN12C renal, in the assay on OVCAR-3 ovarian and with SF-268 CNS was above 10 µM each time. The TGI with EKVX NSCLC was above 10 µM.
With `CN(C)CCCNC(=O)c1c(O)c2ccccc2[nH]c1=O`, the TGI with RXF 393 renal, with LOX IMVI melanoma, in the assay on SW-620 colon, in the assay on NCI-H460 lung, in the assay on HCT-116 colon and in the assay on MDA-MB-435 was above 100 µM throughout. In addition, the TGI in the assay with MALME-3M melanoma, in the assay on OVCAR-8 ovarian, in the assay on KM12 colon, with SK-MEL-28 melanoma, in the assay on NCI-H226 lung and in the assay on HT29 colon was above 100 µM each time. Moreover, the TGI in the assay with HL-60(TB) leukemia, in the assay on NCI-H23 lung, in the assay with OVCAR-4 ovarian, in the assay on SN12C renal, with OVCAR-3 ovarian and in the assay on SF-268 CNS was above 100 µM each time. The compound also yielded a TGI in the assay with EKVX NSCLC above 100 µM.
For `CN(C)c1ccc(/C=C/C(=O)CC(=O)/C=C/c2ccc(N(C)C)cc2)cc1`, the TGI with M14 melanoma, with RXF 393 renal, in the assay on LOX IMVI melanoma, with SW-620 colon, in the assay with NCI-H460 lung and in the assay with HCT-116 colon was above 100 µM throughout. Also, the TGI with MDA-MB-435, in the assay with MALME-3M melanoma, in the assay with OVCAR-8 ovarian, in the assay with KM12 colon, with SK-MEL-28 melanoma and with NCI-H226 lung was above 100 µM throughout. Also, the TGI in the assay on HT29 colon, in the assay on HL-60(TB) leukemia, with OVCAR-4 ovarian, with SN12C renal, in the assay on OVCAR-3 ovarian and with SF-268 CNS was above 100 µM throughout. In the assay on EKVX NSCLC, this compound registered a TGI above 100 µM.
For `Cc1cc(-c2cccc3ccccc23)c(C#N)c(=S)n1C1OC(CO)C(O)C(O)C1O` (configuration not stated), the TGI in the assay with M14 melanoma, in the assay on RXF 393 renal, with LOX IMVI melanoma, in the assay on SW-620 colon, in the assay on NCI-H460 lung and in the assay with HCT-116 colon was above 100 µM each time. Also, the TGI in the assay on MDA-MB-435, with MALME-3M melanoma, in the assay with OVCAR-8 ovarian, in the assay on KM12 colon, in the assay on NCI-H226 lung and with HT29 colon was above 100 µM each time. For the same compound, the TGI in the assay with HL-60(TB) leukemia, with NCI-H23 lung, with OVCAR-4 ovarian, in the assay on SN12C renal, in the assay with OVCAR-3 ovarian and in the assay with EKVX NSCLC was above 100 µM throughout.
Regarding `Cc1ccc(C2=Nn3c(nc4sc(C)c(C)c4c3=O)SC2)cc1`, the TGI in the assay with RXF 393 renal, in the assay on LOX IMVI melanoma, in the assay on SW-620 colon, in the assay with NCI-H460 lung, in the assay with HCT-116 colon and in the assay with MDA-MB-435 was above 100 µM each time. For the same compound, the TGI in the assay with MALME-3M melanoma, in the assay on OVCAR-8 ovarian, with KM12 colon, in the assay with SK-MEL-28 melanoma, in the assay with NCI-H226 lung and in the assay with HT29 colon was above 100 µM in each case. The TGI in the assay on HL-60(TB) leukemia, with NCI-H23 lung, in the assay on OVCAR-4 ovarian, with SN12C renal, with OVCAR-3 ovarian and in the assay with SF-268 CNS was above 100 µM throughout. In the assay on EKVX NSCLC, this compound returned a TGI above 100 µM.
Turning to `c1cncc(C2(c3cc4ccccc4[nH]3)COCO2)c1` (configuration not stated), the TGI in the assay on M14 melanoma, in the assay with RXF 393 renal, with LOX IMVI melanoma, in the assay on SW-620 colon, in the assay with NCI-H460 lung and with HCT-116 colon was above 100 µM in each case. In addition, the TGI with MDA-MB-435, in the assay with MALME-3M melanoma, in the assay with OVCAR-8 ovarian, with KM12 colon, in the assay with SK-MEL-28 melanoma and in the assay with NCI-H226 lung was above 100 µM throughout. For the same compound, the TGI with HT29 colon, with HL-60(TB) leukemia, with NCI-H23 lung, in the assay on OVCAR-4 ovarian, with OVCAR-3 ovarian and in the assay on SF-268 CNS was above 100 µM in each case. Also, the TGI with EKVX NSCLC was above 100 µM.
As for `CC1(C)CC(C2=NCCO2)CC(C)(C)N1`, the TGI with M14 melanoma, in the assay with RXF 393 renal, in the assay on LOX IMVI melanoma, with HCT-116 colon, in the assay on MDA-MB-435 and in the assay with MALME-3M melanoma was above 100 µM throughout. The TGI with OVCAR-8 ovarian, in the assay with SK-MEL-28 melanoma, with NCI-H226 lung, in the assay with HT29 colon, with HL-60(TB) leukemia and with NCI-H23 lung was above 100 µM in each case. For the same compound, the TGI in the assay on OVCAR-4 ovarian, in the assay on SN12C renal, with OVCAR-3 ovarian, with SF-268 CNS and in the assay with EKVX NSCLC was above 100 µM throughout.
In the case of `N=C(N)C1CN(CCCCCCCCCCN2CC(C(=N)N)C(=O)NC2=O)C(=O)NC1=O` (configuration not stated), the TGI in the assay with M14 melanoma, in the assay on RXF 393 renal, with LOX IMVI melanoma, with SW-620 colon, in the assay with NCI-H460 lung and in the assay with HCT-116 colon was above 10 µM each time. The TGI in the assay on MDA-MB-435, in the assay on MALME-3M melanoma, in the assay with OVCAR-8 ovarian, with KM12 colon, with NCI-H226 lung and in the assay on HT29 colon was above 10 µM in each case. The TGI with HL-60(TB) leukemia, in the assay with NCI-H23 lung, with OVCAR-4 ovarian, in the assay on SN12C renal, in the assay with OVCAR-3 ovarian and with EKVX NSCLC was above 10 µM each time.
Consider `Cc1c(C)c(C)c(-n2c(=O)n(C)c(=O)n2-n2c(=O)n(C)c(=O)n2-c2c(C)c(C)c(C)c(C)c2C)c(C)c1C`, for which the TGI in the assay with M14 melanoma, in the assay on RXF 393 renal, with LOX IMVI melanoma, in the assay with SW-620 colon, in the assay with NCI-H460 lung and in the assay on HCT-116 colon was above 100 µM throughout. The TGI in the assay on MDA-MB-435, in the assay on MALME-3M melanoma, in the assay on OVCAR-8 ovarian, in the assay on KM12 colon, in the assay with SK-MEL-28 melanoma and in the assay on NCI-H226 lung was above 100 µM in each case. Also, the TGI in the assay on HT29 colon was above 100 µM; in the assay with HL-60(TB) leukemia it was 68.7 µM; in the assay with OVCAR-4 ovarian it was above 100 µM; in the assay with SN12C renal, above 100 µM; in the assay with OVCAR-3 ovarian, above 100 µM; with SF-268 CNS, above 100 µM. The compound also returned a TGI in the assay on EKVX NSCLC above 100 µM.

The values are drawn from PubChem BioAssay (NCI).
